How the values were obtained:
Pyricularia oryzae = format: in vivo; conditions: rice seedlings, direct therapeutic foliar spray, 600 ppm, 4-5 days
Leptosphaeria nodorum = test: Activity against wheat leafspot (LN); format: in vivo; conditions: direct therapeutic foliar spray, 600 ppm, 6-8 days
How it was run: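 Wheat cv Norman at single-leaf stage spray-inoculated with 1.5×10^6 conidia/ml, held 24 h at high humidity, then sprayed therapeutically with test compound at 600 ppm. Kept 6-8 days at 22° C, 70% humidity; lesion density per leaf rated against untreated or diluent-sprayed controls.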

[1] = tested on: Erysiphe graminis f.sp. hordei; test: Direct protectant activity against barley powdery mildew (EGP); format: in vivo; conditions: direct protectant foliar spray, 8 days
How it was run: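 Barley seedlings (cv Golden Promise, single-leaf stage) were foliar-sprayed, held 24 h at 18 °C/40% RH, then dusted with mildew conidia. After 8 days at 18 °C/40% RH, sporulating leaf area was scored as a rating against untreated or diluent-sprayed controls.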

Venturia inaequalis = test: Activity against apple scab in-vitro (VII); format: cell-based; conditions: 10 ppm, 10 days, 20° C., mycelial growth
How it was run: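 Compound in acetone was tested at 10 ppm final in half-strength Potato Dextrose Broth inoculated with V. inaequalis mycelial fragments and spores at 5×10^4 propagules/ml. After 10 days at 20° C, mycelial growth was rated against untreated or diluent controls.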

Phytophthora infestans = format: in vivo; conditions: tomato, direct protectant foliar spray
[2] = tested on: Pseudocercosporella herpotrichoides; test: Activity against wheat eyespot in-vitro (PHI); format: cell-based; conditions: 10 ppm, 10 days, 20° C., mycelial growth
How it was run: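 P. herpotrichoides mycelial fragments (5×10^4/ml) grown in half-strength PDB with compound at 10 ppm final, added from acetone. Incubated 10 days at 20 °C; mycelial growth rated against untreated or diluent controls.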

Plasmopara viticola = test: Antisporulant activity against vine downy mildew (PVA); format: in vivo; conditions: vine leaves, antisporulant foliar spray, 600 ppm, 750 l/ha
How it was run: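 Cabernet Sauvignon vines (~8 cm) inoculated on lower leaf surfaces with 5×10^4 zoosporangia/ml, held 24 h at 21° C high humidity then 24 h glasshouse. Infected leaves sprayed underside with 600 ppm compound in 1:1 water/acetone, 0.04% Tween 20, 750 l/ha; 96 h glasshouse, 24 h humidity. Sporulating leaf area rated versus control.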

Alternaria solani = test: Activity against tomato early blight (AS); format: in vivo; conditions: Table VI; tomato seedlings, contact prophylactic foliar spray, 4 days
How it was run: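 Foliar contact prophylactic spray on tomato seedlings (cv Outdoor Girl, second true leaf expanded) in acetone/water 50:50 with 0.04% Tween 20; 24 h at 20° C, 40% R.H., then inoculation with 10^4 spores/ml A. solani conidia. Kept moist at 21° C; lesion cover rated 4 days post-inoculation against untreated or diluent-sprayed controls.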

Botrytis cinerea = test: Direct protectant activity against broad bean grey mould (BCB); format: in vivo; conditions: direct protectant foliar spray, 600 ppm, 4 days
How it was run: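 Broad bean plants (cv The Sutton, two leaf pairs) sprayed on upper leaf surfaces at 600 ppm, then inoculated 24 h later with 10^6 conidia/ml. Kept 4 days at 22 °C, high humidity; disease control rated from % leaf area with lesions against untreated or diluent controls.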

[3] = tested on: Erysiphe graminis f.sp. hordei; test: Activity against barley powdery mildew, direct therapeutic (EGT); format: in vivo; conditions: direct therapeutic foliar spray, 600 ppm, up to 7 days
How it was run: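 Barley seedlings (cv. Golden Promise, single-leaf stage) were dusted with mildew conidia one day before a therapeutic foliar spray of 600 ppm compound. Plants were kept at 18 °C and 40% humidity for up to 7 days, and sporulating leaf area was rated against untreated or diluent-sprayed controls.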

Rhizoctonia solani = test: Activity against Rhizoctonia in-vitro (RSI); format: cell-based; conditions: 10 ppm, 10 days, 20° C., mycelial growth
How it was run: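 R. solani mycelial fragments (5×10^4/ml) in half-strength Potato Dextrose Broth with compound added from acetone to 10 ppm final. Mycelial growth assessed after 10 days at 20° C, rated against untreated or diluent control.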

Structure (SMILES)	disease control rating PO (Pyricularia oryzae)	disease control rating LN (Leptosphaeria nodorum)	disease control rating EGP [1]	disease control rating VII (Venturia inaequalis)	disease control rating PIP (Phytophthora infestans)	disease control rating PHI [2]	disease control rating PVA (Plasmopara viticola)	disease control rating AS (Alternaria solani)	disease control rating BCB (Botrytis cinerea)	disease control rating EGT [3]	disease control rating RSI (Rhizoctonia solani)
CCCCCCNC1COC2(CCCCC2)C1 (stereo not shown) [Compound 32]	0 (less than 50% disease control)	0 (less than 50% disease control)	2 (greater than 80% disease control)	0 (less than 50% disease control)	0 (less than 50% disease control)	0 (less than 50% disease control)	0 (less than 50% disease control)	0 (less than 50% disease control)	0 (less than 50% disease control)	2 (greater than 80% disease control)	0 (less than 50% disease control)
c1ccc(CNC2COC3(CCCCC3)C2)cc1 (stereo not shown) [Compound 33]	0 (less than 50% disease control)	0 (less than 50% disease control)	0 (less than 50% disease control)	0 (less than 50% disease control)	0 (less than 50% disease control)	0 (less than 50% disease control)	0 (less than 50% disease control)	0 (less than 50% disease control)	0 (less than 50% disease control)	1 (about 50-80% disease control)	0 (less than 50% disease control)
Clc1ccc(CNC2COC3(CCCCC3)C2)cc1 (stereo not shown) [Compound 34]	0 (less than 50% disease control)	0 (less than 50% disease control)	2 (greater than 80% disease control)	0 (less than 50% disease control)	0 (less than 50% disease control)	0 (less than 50% disease control)	0 (less than 50% disease control)	0 (less than 50% disease control)	0 (less than 50% disease control)	2 (greater than 80% disease control)	0 (less than 50% disease control)
C1CCN(C2COC3(CCCCC3)C2)CC1 (stereo not shown) [Compound 35]	0 (less than 50% disease control)	0 (less than 50% disease control)	0 (less than 50% disease control)	0 (less than 50% disease control)	0 (less than 50% disease control)	0 (less than 50% disease control)	0 (less than 50% disease control)	0 (less than 50% disease control)	0 (less than 50% disease control)	0 (less than 50% disease control)	0 (less than 50% disease control)
CC1CN(C2COC3(CCCCC3)C2)CC(C)O1 (stereo not shown) [Compound 36]	0 (less than 50% disease control)	0 (less than 50% disease control)	2 (greater than 80% disease control)	1 (about 50-80% disease control)	0 (less than 50% disease control)	0 (less than 50% disease control)	0 (less than 50% disease control)	0 (less than 50% disease control)	0 (less than 50% disease control)	2 (greater than 80% disease control)	0 (less than 50% disease control)
CCCCCCNC1COC2(CCC(C(C)(C)C)CC2)C1 (stereo not shown) [Compound 37]	0 (less than 50% disease control)	0 (less than 50% disease control)	2 (greater than 80% disease control)	0 (less than 50% disease control)	0 (less than 50% disease control)	1 (about 50-80% disease control)	0 (less than 50% disease control)	0 (less than 50% disease control)	1 (about 50-80% disease control)	2 (greater than 80% disease control)	0 (less than 50% disease control)
CCCCCCNC1COC2(CCC(C(C)(C)C)CC2)C1 (stereo not shown) [Compound 38]	0 (less than 50% disease control)	0 (less than 50% disease control)	2 (greater than 80% disease control)	0 (less than 50% disease control)	0 (less than 50% disease control)	2 (greater than 80% disease control)	0 (less than 50% disease control)	2 (greater than 80% disease control)	0 (less than 50% disease control)	2 (greater than 80% disease control)	1 (about 50-80% disease control)
CCCCCCNC1COC2(CCC(C(C)(C)C)CC2)C1 (stereo not shown) [Compound 39]	0 (less than 50% disease control)	0 (less than 50% disease control)	2 (greater than 80% disease control)	0 (less than 50% disease control)	0 (less than 50% disease control)	1 (about 50-80% disease control)	0 (less than 50% disease control)	2 (greater than 80% disease control)	0 (less than 50% disease control)	2 (greater than 80% disease control)	0 (less than 50% disease control)
